pEC50, pIC50: −log10 of the molar value.

From patent publication US20260226066A1, “PGDH INHIBITORS AND METHODS OF MAKING AND USING” (Epirium Bio Inc., priority 2023, published 2026) come the findings set out here.

One assay concerns the target T1, 15-PGDH/HPGD (Homo sapiens, UniProt P15428).
T1 construct: purchased R&D System 5660-DH
T1 sequence (P15428 1-266): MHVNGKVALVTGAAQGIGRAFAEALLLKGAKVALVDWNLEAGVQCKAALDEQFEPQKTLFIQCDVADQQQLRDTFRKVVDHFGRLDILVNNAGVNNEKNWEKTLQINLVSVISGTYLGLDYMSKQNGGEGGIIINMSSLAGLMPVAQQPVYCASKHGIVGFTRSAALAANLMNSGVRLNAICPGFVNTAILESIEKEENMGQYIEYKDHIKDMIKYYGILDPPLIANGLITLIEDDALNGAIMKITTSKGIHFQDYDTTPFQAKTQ
The assay is described as follows: hPGDH inhibitor screening biochemical assay. As to conditions: 10 nM enzyme, fluorescence ex/em 340/485 nm. How it is done: A hydroxyprostaglandin dehydrogenase inhibition screening biochemical assay can be performed to assess the synthesized inhibitors provided herein. Provided herein is an exemplary biochemical assay for hPGDH inhibitor screening.
The in vitro biochemical assay can be performed in white, 384 plates in total 20 μl reaction volume consisting of 10 nM of 15-PGDH/HPGD (R&D System #5660-DH), 15 µM Prostaglandin E2 (Sigma, Cat #P5640-10MG) and 0.25 mM β-Nicotinamide adenine dinucleotide sodium salt (Sigma, Cat #N0632-5G) made in reaction buffer (50 mM Tris-HCl, pH 7.5, 0.01% Tween 20) at 10-point dose response curve for test/tool compounds. Briefly, 5 μl (4×) of compounds solution and 5 μl (final concentration, 10 nM) of enzyme solution is added to white 384 well plates and incubated for 10 mins at 37° C. 5 μl (4×) of Prostaglandin E2 and 5 μl (4×) of β-Nicotinamide adenine dinucleotide sodium salt is added to the wells and incubated for 10 mins at room temperature. Fluorescence is recorded at ex/em=340 nm/485 nm.

The subject of the next assay is A549. The assay is described as follows: A549 EC50 (cell assay, no method described). The class given is cell-based.

As to `[O-][S+](c1cnc2c(cnn2-c2ccc3nc(N4CCOCC4)nn3c2)c1)C1CC(F)(F)C1` (stereo not shown) [Compound 117A], on 15-PGDH/HPGD, the pIC50 (usually the IC50 on a negative log10 scale, so that one unit is a factor of ten) was more than 7.00.

On to `COCCC[S+]([O-])c1cnc2c(cnn2-c2ccc(N3CCN(C)C3=O)nc2)c1` (single isomer, unassigned) [Compound 114B], for which, in the assay with A549 (A549), the negative-log EC50 (pEC50) (as a rule, the negative decadic logarithm of the EC50, by convention in mol/L) was not above 6.00. This compound also showed a pIC50 on 15-PGDH/HPGD not above 6.00. Regarding `O=S(=O)(c1cnc2c(cnn2-c2cccc(-c3nnc[nH]3)c2)c1)C1CC(F)(F)C1` [Compound 6], the negative-log EC50 (pEC50) with A549 (Homo sapiens, A549, A549) is not above 6.00. The same compound showed a negative-log IC50 (pIC50) on 15-PGDH/HPGD of 6.00 to 7.00.

On to `O=c1cc(-c2cccc(-n3ncc4cc([S+]([O-])C5CCC5)cnc43)c2)cc[nH]1` (stereo not shown) [Compound 94A], for which the negative-log EC50 (pEC50) in the assay on A549 (Homo sapiens, A549, A549) was 6.00 to 7.00. Also, the pIC50 against 15-PGDH/HPGD is more than 7.00. In the assay with A549 (Homo sapiens, A549, A549), `[O-][S+](c1cnc2c(ccn2-c2cccc(-c3nnc[nH]3)c2)c1)C1CCC1` (single isomer, unassigned) [Compound 50B] gave a negative logarithm of the EC50 (pEC50) of 6.00 to 7.00. On 15-PGDH/HPGD, this compound had a pIC50 of more than 7.00.

The compound `COCC1CC([S+]([O-])c2cnc3c(cnn3-c3cccc(-c4nnc[nH]4)c3)c2)C1` (stereo not shown) [Compound 109C] had a pEC50 in the assay with A549 (Homo sapiens, A549, A549) not above 6.00. The compound also gave a pIC50 against 15-PGDH/HPGD not above 6.00.

On to `CNC(=O)c1ccc(-c2cncc(-n3ncc4cc([S+]([O-])C5CCCC5)cnc43)c2)cc1` (stereo not shown) [Compound 13], for which the negative logarithm of the EC50 (pEC50) in the assay with A549 (Homo sapiens, A549, A549) is not above 6.00. The compound also showed a pIC50 on 15-PGDH/HPGD of more than 7.00. Turning to `CCCC[S+]([O-])c1cnc2c(cnn2-c2cccc(-c3nnc(C)[nH]3)c2)c1` (stereo not shown) [Compound 17A], the pEC50 in the assay on A549 (A549) is not above 6.00. The same compound showed a pIC50 against 15-PGDH/HPGD of 6.00 to 7.00. `CCCC[S+]([O-])c1cnc2c(cnn2-c2cncc(NC(=O)OCC)c2)c1` (stereo not shown) [Compound 45]: the negative-log EC50 (pEC50) with A549 (Homo sapiens, A549, A549) was 6.00 to 7.00. At 15-PGDH/HPGD, the pIC50 was more than 7.00. Take `[O-][S+](c1cnc2c(cnn2-c2cccc(-c3nnc[nH]3)c2)c1)C1CCC1` (single isomer, unassigned) [Compound 18A, 1-(3-(4H-1,2,4-triazol-3-yl)phenyl)-5-(cyclobutylsulfinyl)-1H-pyrazolo[3,4-b]pyridine]: the negative-log EC50 (pEC50) with A549 (A549) was not above 6.00. The same compound had a negative logarithm of the IC50 (pIC50) against 15-PGDH/HPGD of more than 7.00. With `[O-][S+](c1cnc2c(ccn2-c2ccc(-c3nnc[nH]3)cc2)c1)C1CCCC1` (stereo not shown) [Compound 72], in the assay with A549 (Homo sapiens, A549, A549), the pEC50 is more than 7.00. Further, the negative logarithm of the IC50 (pIC50) at 15-PGDH/HPGD is more than 7.00. For the compound `CC(C)CC[S+]([O-])c1cnc2c(ccn2-c2cccc(-c3nnc[nH]3)c2)c1` (single isomer, unassigned) [Compound 54A], the pEC50 in the assay on A549 (A549) is 6.00 to 7.00. In addition, the pIC50 against 15-PGDH/HPGD is more than 7.00. `O=S(=O)(c1cnc2c(cnn2-c2cc(Cl)cc(-c3nnc[nH]3)c2)c1)C1CCCC1` [Compound 31]: the pEC50 in the assay with A549 (Homo sapiens, A549, A549) was more than 7.00. Besides, at 15-PGDH/HPGD, the pIC50 was more than 7.00. Regarding `COCCC[S+]([O-])c1cnc2c(cnn2-c2ccc(N3CCOC3=O)nc2)c1` (single isomer, unassigned) [Compound 115A], the negative-log EC50 (pEC50) in the assay with A549 (Homo sapiens, A549, A549) was not above 6.00. This compound also had a pIC50 against 15-PGDH/HPGD of more than 7.00.

For the compound `[O-][S+](CCC1CC1)c1cnc2c(ccn2-c2cccc(-c3nnc[nH]3)c2)c1` (single isomer, unassigned) [Compound 51A], the negative-log EC50 (pEC50) in the assay with A549 (A549) was not above 6.00. For the same compound, the pIC50 against 15-PGDH/HPGD was more than 7.00. For the compound `[O-][S+](c1cnc2c(cnn2-c2cccc(-c3nnc[nH]3)c2)c1)C1CCC(F)(F)C1` (single isomer, unassigned) [Compound 8B], the pIC50 at 15-PGDH/HPGD is 6.00 to 7.00.

Consider `[O-][S+](c1cnc2c(cnn2-c2cccc(-c3ccnc(N4CCOCC4)c3)c2)c1)C1CCC1` (stereo not shown) [Compound 91A], for which the pIC50 against 15-PGDH/HPGD was more than 7.00. For `[O-][S+](c1cnc2c(cnn2-c2cccc(-c3nnc[nH]3)c2)c1)C1CC(F)(F)C1` (single isomer, unassigned) [Compound 7A], the negative-log IC50 (pIC50) on 15-PGDH/HPGD was 6.00 to 7.00. `CC(C)CC[S+]([O-])c1cnc2c(cnn2-c2ccc(CCCC(=O)O)c(F)c2)c1` (stereo not shown) [Compound 127A]: on 15-PGDH/HPGD, the pIC50 was 6.00 to 7.00. At 15-PGDH/HPGD, `CC(=O)Nc1cccc(-c2cncc(-n3ncc4cc([S+]([O-])C5CCCC5)cnc43)c2)c1` (single isomer, unassigned) [Compound 14B] had a pIC50 of 6.00 to 7.00. For the compound `[O-][S+](c1cnc2c(cnn2-c2cccc(-c3ccc(O)nc3)c2)c1)C1CCC(F)(F)C1` (single isomer, unassigned) [Compound 5B], the negative-log IC50 (pIC50) on 15-PGDH/HPGD was not above 6.00. `COc1cc(-c2cccc(-n3ncc4cc([S+]([O-])C5CCC5)cnc43)c2)ccn1` (single isomer, unassigned) [Compound 93B] showed a pIC50 against 15-PGDH/HPGD not above 6.00. With `[O-][S+](c1cnc2c(cnn2-c2cccc(-c3ccnc(N4CCOCC4)c3)c2)c1)C1CCC1` (stereo not shown) [Compound 91B], the pIC50 against 15-PGDH/HPGD was 6.00 to 7.00. `[O-][S+](c1cnc2c(cnn2-c2cccc(-c3ccc(N4CCOCC4)nc3)c2)c1)C1CCC1` (stereo not shown) [Compound 95A]: the pIC50 against 15-PGDH/HPGD is more than 7.00.

`COCC(C)(C)C[S+]([O-])c1cnc2c(cnn2-c2cccc(-c3nnc[nH]3)c2)c1` (single isomer, unassigned) [Compound 126A] showed a pIC50 at 15-PGDH/HPGD not above 6.00. `[O-][S+](c1cnc2c(cnn2-c2cccc(-c3ccc(O)nc3)c2)c1)C1CCC(F)(F)C1` (single isomer, unassigned) [Compound 5D]: the negative-log IC50 (pIC50) against 15-PGDH/HPGD is more than 7.00. In the case of `COCCC[S+]([O-])c1cnc2c(ccn2-c2cccc(-c3nnc[nH]3)c2)n1` (stereo not shown) [Compound 103A], the negative logarithm of the IC50 (pIC50) against 15-PGDH/HPGD was 6.00 to 7.00. Compound `CC(C)OC[S+]([O-])c1cnc2c(cnn2-c2cccc(-c3nnc[nH]3)c2)c1` (single isomer, unassigned) [Compound 2A, 1-(3-(4H-1,2,4-triazol-3-yl)phenyl)-5-((isopropoxymethyl)sulfinyl)-1H-pyrazolo[3,4-b]pyridine] had a negative logarithm of the IC50 (pIC50) at 15-PGDH/HPGD of 6.00 to 7.00. Compound `CCOC(=O)Nc1cncc(-n2ncc3cc(C(=O)CC4CCC4)cnc32)c1` [Compound 42] had a pIC50 against 15-PGDH/HPGD of more than 7.00. As to `COCC(C)(C)C[S+]([O-])c1cnc2c(cnn2-c2cccc(-c3nnc[nH]3)c2)c1` (single isomer, unassigned) [Compound 126B], the negative-log IC50 (pIC50) on 15-PGDH/HPGD is more than 7.00. `CC1(O)CC([S+]([O-])c2cnc3c(cnn3-c3cccc(-c4nnc[nH]4)c3)c2)C1` (stereo not shown) [Compound 107A]: in the assay with A549 (Homo sapiens, A549, A549), the negative-log EC50 (pEC50) is not above 6.00. `COc1ccc(-c2cccc(-n3ncc4cc([S+]([O-])C5CCC5)cnc43)c2)cn1` (stereo not shown) [Compound 90B] showed a negative logarithm of the IC50 (pIC50) at 15-PGDH/HPGD of 6.00 to 7.00.

For `[O-][S+](c1cnc2c(cnn2-c2cccc(-c3nnc[nH]3)c2)c1)C1CCC(F)(F)C1` (single isomer, unassigned) [Compound 8A], on 15-PGDH/HPGD, the pIC50 is not above 6.00.

For `O=S(=O)(c1cnc2c(cnn2-c2ccc(-c3nnc[nH]3)cc2)c1)C1CCOCC1` [Compound 37], the pIC50 against 15-PGDH/HPGD was not above 6.00. Consider `Cc1nnc(-c2cccc(-n3ncc4cc([S+]([O-])C5CCC5)cnc43)c2)[nH]1` (stereo not shown) [Compound 92A], for which, at 15-PGDH/HPGD, the pIC50 was 6.00 to 7.00. The same measure, in the same setting: next, `CCCC[S+]([O-])c1cnc2c(cnn2-c2cc(F)cc(NC(=O)OCC)c2)c1` (stereo not shown) [Compound 27B]: not above 6.00. Regarding `CCOC(=O)Nc1cncc(-n2ccc3cc([S+]([O-])C4CC4)cnc32)c1` (stereo not shown) [Compound 67], the negative-log IC50 (pIC50) on 15-PGDH/HPGD was more than 7.00. `[O-][S+](c1cnc2c(cnn2-c2ccc3nc(N4CCOCC4)nn3c2)c1)C1CC(F)(F)C1` (stereo not shown) [Compound 117B]: at 15-PGDH/HPGD, the pIC50 was 6.00 to 7.00. `O=c1cc(-c2cccc(-n3ncc4cc([S+]([O-])C5CCC5)cnc43)c2)cc[nH]1` (stereo not shown) [Compound 94B] gave a negative-log IC50 (pIC50) against 15-PGDH/HPGD of 6.00 to 7.00. `[O-][S+](c1cnc2c(cnn2-c2cccc(-c3ccc(N4CCOCC4)nc3)c2)c1)C1CCC1` (stereo not shown) [Compound 95B] gave a negative logarithm of the IC50 (pIC50) against 15-PGDH/HPGD of 6.00 to 7.00. Compound `CC(C)CC[S+]([O-])c1cnc2c(cnn2-c2ccc(CCCC(=O)O)c(F)c2)c1` (stereo not shown) [Compound 127B] had a pIC50 at 15-PGDH/HPGD of more than 7.00.
